Measurements published in US10906938B2, “Cell epitopes and combination of cell epitopes for use in the immunotherapy of myeloma and other cancers” (Immatics Biotechnologies GmbH, priority 2015, dated 2021).

Tests used:
Type in all cases: cell-based, human
[1] = tested on: PBMC obtained from MM patients; experiment: 12-day recall IFNγ ELISPOT with PBMC of MM patients
Procedure: PBMC from MM patients and HVs were cultured as described previously. In brief, for CD8^+ T-cell stimulation, PBMC were pulsed with 1 μg/ml per peptide and cultured for 12 days adding IL-4 and IL-7 on day 0 and 1 as well as IL-2 on day 3, 5, 7 and 9. HLA-A*02 (KLFEKVKEV) (SEQ ID NO. 231) and B*07 (KPSEKIQVL) (SEQ ID NO. 232) restricted control peptides derived from benign tissues (HV-exclusive HLA ligands) served as negative control. Peptide-stimulated PBMC were analyzed by ELISPOT assays on day 12. For CD4^+ T-cell stimulation, culture was performed as described for CD8^+ T cells except for 2 modifications: pulsing was carried out with 10 μg/ml of HLA class II peptide and no IL-4 or IL-7 was added.
IFNγ ELISPOT assays were carried out as described previously. In brief, 96-well nitrocellulose plates (Millipore) were coated with […] IFNγ mAb (Mabtech) and incubated over night at 4° C. Plates were blocked with 10% human serum for 2 h at 37° C. 2.5×10^5 cells/well of pre-stimulated PBMC were pulsed with 1 μg/ml (HLA class I) or 2.5 μg/ml (HLA class II) peptide and incubated for 24-26 h. Readout was performed according to manufacturer's instructions. PHA was used as positive control. HLA-A*02 (KLFEKVKEV) (SEQ ID NO. 231) and B*07 (KPSEKIQVL) (SEQ ID NO. 232) restricted control peptides derived from benign tissues (HV-exclusive HLA ligands) served as negative control. Spots were counted using an ImmunoSpot S5 analyzer (CTL). T cell responses were considered to be positive when >10 spots/well were counted and the mean spot count per well was at least 3-fold higher than the mean number of spots in the negative control wells (according to the cancer immunoguiding program (CIP) guidelines).

U266 cells = experiment: HLA class I ligand presentation upon carfilzomib treatment on U266 cells (LC-MS/MS); set-up: key to modulation upon carfilzomib-treatment 24 #1 / modulation upon carfilzomib-treatment 24 #2 / modulation upon carfilzomib-treatment 24 #3 / modulation upon carfilzomib-treatment 48 #1 / modulation upon carfilzomib-treatment 48 #2 / modulation upon carfilzomib-treatment 48 #3: −1: significantly down-modulated; 0: not signifcant/not detected; 1: significantly up-modulated; conditions: U266 cells, vs mock-treated controls; for modulation upon carfilzomib-treatment 24 #1 / modulation upon carfilzomib-treatment 24 #2 / modulation upon carfilzomib-treatment 24 #3: 24 h after carfilzomib treatment (100 nM, 1 h); for modulation upon carfilzomib-treatment 24 #1 / modulation upon carfilzomib-treatment 48 #1: biological replicate #1; for modulation upon carfilzomib-treatment 24 #2 / modulation upon carfilzomib-treatment 48 #2: biological replicate #2; for modulation upon carfilzomib-treatment 24 #3 / modulation upon carfilzomib-treatment 48 #3: biological replicate #3; for modulation upon carfilzomib-treatment 48 #1 / modulation upon carfilzomib-treatment 48 #2 / modulation upon carfilzomib-treatment 48 #3: 48 h after carfilzomib treatment (100 nM, 1 h)
Procedure, shortened: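 MM.1S and U266 myeloma cells were pulsed with 100 nM carfilzomib for 1 h, washed and recultured 24 or 48 h; controls got 5% glucose vehicle. HLA class I ligands were immunopurified with W6/32 and analysed by nanoLC-MS/MS (CID, 5 technical replicates, 5% FDR, 8-12-mers). Modulation versus mock was scored as fold-change ≥4 with Benjamini-Hochberg-corrected significance.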

MM.1S cells = experiment: HLA class I ligand presentation upon carfilzomib treatment on MM.1S cells (LC-MS/MS); set-up: key to modulation upon carfilzomib-treatment 24 #1 / modulation upon carfilzomib-treatment 24 #2 / modulation upon carfilzomib-treatment 24 #3 / modulation upon carfilzomib-treatment 48 #1 / modulation upon carfilzomib-treatment 48 #2 / modulation upon carfilzomib-treatment 48 #3: −1: significantly down-modulated; 0: not signifcant/not detected; 1: significantly up-modulated; conditions: MM.1S cells, vs mock-treated controls; for modulation upon carfilzomib-treatment 24 #1 / modulation upon carfilzomib-treatment 24 #2 / modulation upon carfilzomib-treatment 24 #3: 24 h after carfilzomib treatment (100 nM, 1 h); for modulation upon carfilzomib-treatment 24 #1 / modulation upon carfilzomib-treatment 48 #1: biological replicate #1; for modulation upon carfilzomib-treatment 24 #2 / modulation upon carfilzomib-treatment 48 #2: biological replicate #2; for modulation upon carfilzomib-treatment 24 #3 / modulation upon carfilzomib-treatment 48 #3: biological replicate #3; for modulation upon carfilzomib-treatment 48 #1 / modulation upon carfilzomib-treatment 48 #2 / modulation upon carfilzomib-treatment 48 #3: 48 h after carfilzomib treatment (100 nM, 1 h)
Procedure: HLA class I and II molecules were isolated using standard immunoaffinity purification as described using the pan-HLA class I specific mAb W6/32, the pan-HLA class II specific mAb T039 and the HLA-DR specific mAB L243 (produced in house).
HLA ligand extracts were analyzed in 5 technical replicates as described previously. In brief, peptide samples were separated by nanoflow HPLC (RSLCnano, ThermoFisher) using a 50 μm×25 cm PepMap RSLC column (Thermo Fisher) and a gradient ranging from 2.4 to 32.0% acetonitrile over the course of 90 min. Eluting peptides were analyzed in an online coupled LTQ Orbitrap XL mass spectrometer (Thermo Fisher) using a top 5 CID (collision induced dissociation) fragmentation method.
Data processing was performed as described previously. In brief, the Mascot search engine (Mascot 2.2.04; Matrix Science, London, UK) was implemented to search the human proteome as comprised in the Swiss-Prot database (20,279 reviewed protein sequences, September 2013) without enzymatic restriction. Potential mutated HLA ligands were searched implementing a database containing the human proteome concatenated with proteins containing single amino acid variants (SAVs) listed in the COSMIC database (http://cancer.sanger.ac.uk/cosmic/). Only recurrent SAVs described in 2 or more samples of hematological origin were included. Oxidized methionine was allowed as a dynamic modification. The false discovery rate was estimated using the Percolator algorithm and set to 5%. Peptide lengths were limited to 8-12 amino acids for HLA class I and 12-25 amino acids for HLA class II. Protein inference was disabled, allowing for multiple protein annotations of peptides. HLA annotation was performed using SYFPEITHI [46] or an extended in-house database. Experimental validation of peptide identifications and HLA annotations was performed by mass spectrometric and functional characterization of synthetic peptides for a subset of peptides.
The inventors quantitatively assessed HLA class I ligand presentation during proteasome inhibitor therapy. Observed was a considerable plasticity of the HLA class I ligandome after treatment with carfilzomib with 17.9±1.1% of MM.1S ligands and 11.2±0.7% of U266 ligands (mean of three biological replicates ±s.d.) showing significant modulation (fold-change ≥4, Po0.01 after Benjamini-Hochberg correction) at t24 h compared with mock-treated controls. Briefly, Cultured MCLs (MM.1S and U266) and primary myeloma samples were incubated with carfilzomib (100 nM, Kyprolis®, available, e.g., from Onyx Pharmaceuticals, Inc.) as an example for a proteasome inhibitor for a 1-h period, followed by three washes in PBS (Gibco) and recultured for additional 24 or 48 h. Controls were incubated with vehicle control (glucose 5%) for 1 h, followed by identical washing and incubation for 24 or 48 h. Experiments were conducted in three biological replicates where indicated.

[2] = 12-day recall IFNγ ELISPOT, PBMC of MM patients, HLA class I peptide

Sequence | specific T-cell recognition, MM patients positive/tested [1, 2] | specific T-cell recognition, share of MM patients [1, 2] [%] | modulation upon carfilzomib-treatment 24 #1 (U266 cells) | modulation upon carfilzomib-treatment 24 #2 (U266 cells) | modulation upon carfilzomib-treatment 24 #3 (U266 cells) | modulation upon carfilzomib-treatment 48 #1 (U266 cells) | modulation upon carfilzomib-treatment 48 #2 (U266 cells) | modulation upon carfilzomib-treatment 48 #3 (U266 cells) | modulation upon carfilzomib-treatment 24 #1 (MM.1S cells) | modulation upon carfilzomib-treatment 24 #2 (MM.1S cells) | modulation upon carfilzomib-treatment 24 #3 (MM.1S cells) | modulation upon carfilzomib-treatment 48 #1 (MM.1S cells) | modulation upon carfilzomib-treatment 48 #2 (MM.1S cells) | modulation upon carfilzomib-treatment 48 #3 (MM.1S cells) | memory T-cell responses, MM patients positive/tested ([1]; IFNγ ELISPOT, HLA class II peptide, MM patients)
KAMEAASSL (listed as Homo sapiens) [SEQ ID NO: 82] | 2/16 | 13 |  |  |  |  |  |  |  |  |  |  |  |  | 
IPAKPPVSF |  |  | 0 | 0 | 0 | 0 | 0 | 0 | 0 | 0 | 0 | 0 | 0 | 0 | 
RPKAQPTTL |  |  | 0 | 0 | 0 | 0 | 0 | 0 | 0 | 0 | 1 | 0 | 0 | 0 | 
FAYPAIRYL |  |  | 0 | 0 | 0 | 1 | 0 | 1 | 0 | 0 | 0 | 0 | 0 | 0 | 
KPQPRPQTL |  |  | 0 | 0 | 0 | 0 | 0 | 0 | 1 | 1 | 1 | 0 | 0 | 0 | 
NSVIIVDKNGRLV (listed as Homo sapiens) [SEQ ID NO: 237] |  |  |  |  |  |  |  |  |  |  |  |  |  |  | 2/5
TPSSRPASL |  |  | 0 | 0 | 0 | 0 | 0 | 0 | 1 | 1 | 0 | 0 | 0 | 0 | 
FVFPGELLL |  |  | 1 | 1 | 0 | 0 | 0 | 0 | 0 | 0 | 0 | 0 | 0 | 0 | 
KPRPPQGL |  |  | 0 | 0 | 0 | 1 | 1 | 1 | 1 | 1 | 1 | 1 | 0 | 0 | 
TPAVGRLEV |  |  | 0 | 0 | 0 | 0 | 0 | 0 | 0 | 0 | 0 | 0 | 0 | 0 | 
APRHPSTNSL |  |  | 0 | 1 | 0 | 1 | 1 | 0 | 0 | 0 | 1 | 0 | 0 | 0 | 
